# Measured values published in patent US20250051390A1, “NOVEL ADIPONECTIN-DERIVED PEPTOID DERIVATIVE AND USE THEREOF” (SEOUL NATIONAL UNIVERSITY HOSPITAL, priority 2021, published 2025).
# *1 amine or outer side, *2 acyl side, *3 side chain or, on linkers, in order; H or OH if unused. Where a SMILES comes first, the peptide text is derived from it. [ ]: non-standard residue; d: D form. Gly(N-4-hydroxybenzyl) = O=C(O)CNCc1ccc(O)cc1; X1 = O=C(CN(Cc1ccc(C(F)(F)F)cc1)[*:1])[*:2]; Gly(N-cPent) = O=C(O)CNC1CCCC1; Gly(NCH2cPr) = O=C(O)CNCC1CC1; N(cBu)Gly = O=C(O)CNC1CCC1; Nphe = O=C(O)CNCc1ccccc1
# Key:
# AMPK phosphorylation [1] = test: AMPK phosphorylation activity in mouse adipocytes (Western blot); assay type: cell-based; conditions: 3T3-L1, 10 μM, 24 hours; for AMPK phosphorylation activity (fold change): Western blot, APN5 = 1.0
# Protocol: There were confirmed effects of the peptoid derivative of the present disclosure on the expression and receptor activity of adiponectin in mouse adipocytes as a main adiponectin production site. A mouse adipocyte cell line 3T3-L1 was treated with each of the peptoid derivatives of the present disclosure at a concentration of 10 μM and cultured for 24 hours, and then cells were obtained. Thereafter, the protein was extracted and the effect of adiponectin on AMPK phosphorylation, which was responsible for the main downstream signaling, was confirmed by Western blot.
# adiponectin receptor 1 = target: T1, adiponectin receptor 1 (Mus musculus, UniProt Q91VH1); test: Loss of AMPK phosphorylation activity after knockdown of adiponectin receptor 1; assay type: cell-based; conditions: 3T3-L1, adiponectin receptor 1 siRNA, 10 μM, 24 hours
# T1 construct: a mouse adipocyte cell line 3T3-L1 was treated with siRNA of an adiponectin receptor 1 to be knocked down; endogenous in cells; host or cells: 3T3-L1 mouse adipocyte cell line
# T1 sequence (Q91VH1 1-375): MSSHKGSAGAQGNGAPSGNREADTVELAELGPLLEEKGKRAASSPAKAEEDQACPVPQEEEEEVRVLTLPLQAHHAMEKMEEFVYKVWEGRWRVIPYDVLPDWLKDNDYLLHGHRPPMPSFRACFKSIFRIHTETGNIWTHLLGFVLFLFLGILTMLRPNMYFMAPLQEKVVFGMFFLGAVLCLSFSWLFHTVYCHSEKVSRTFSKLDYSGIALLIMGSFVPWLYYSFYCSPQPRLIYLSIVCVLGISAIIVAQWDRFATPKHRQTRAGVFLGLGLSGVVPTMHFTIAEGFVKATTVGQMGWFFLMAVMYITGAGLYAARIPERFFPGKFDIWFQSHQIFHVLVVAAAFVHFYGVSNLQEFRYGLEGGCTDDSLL
# Protocol: In order to verify whether the peptoid derivative of the present disclosure bound to an adiponectin receptor 1, a mouse adipocyte cell line 3T3-L1 was treated with siRNA of an adiponectin receptor 1 to be knocked down, and each of the peptoid derivatives of the present disclosure was treated at a concentration of 10 μM and cultured for 24 hours, and then cells were obtained. Thereafter, the proteins were extracted and it was confirmed by Western blot whether AMPK phosphorylation activity, which had been increased by the peptoid derivatives, was lost.
# AMPK phosphorylation [2] = test: Concentration dependence of AMPK phosphorylation activity; assay type: cell-based, mouse; conditions: 3T3-L1, 0, 0.01, 0.1, 1, 10, and 100 μM, 24 hours
# Text: Thereafter, the protein was extracted and the effect of the peptoid derivative on AMPK phosphorylation in a concentration-dependent manner was confirmed by Western blot.
# physchem = conditions: pH 7.4
# Protocol: (§2) A PRISMA HT solution was diluted in distilled water at a ratio of 1:40, and then used as a test buffer by adjusting the pH to 7.4.
# (§3) 10 mL of the prepared test material was diluted in 190 μL of isopropyl alcohol and prepared. In addition, 75 mL of the test solution and 70 mL of isopropyl alcohol were mixed to be used as a blank sample, and 5 mL of the test material diluted in isopropyl alcohol was added to the blank sample. After the diluted sample was mixed, the absorbance was measured and used as an initial test value. […] Thereafter, the precipitate was removed from the sample using a filter plate, 74 mL of the filtered sample was added with 75 mL of isopropyl alcohol, and then the absorbance was measured and used as the sample value.
# (§4) The solubility value of the test material was analyzed using a msol Explore (Solubility explorer program) after measuring the absorbance of each sample through a microplate reader. The average and standard deviation of the experimental values (n=3) repeated three times were calculated using the Excel program.
# in vitro [3] = conditions: human, plasma
# Protocol: (§5) The peptoid derivative of the present disclosure was added at a concentration of 1 μM to two types of plasma (human, rat), placed in each tube, and then cultured at 37° C. for time of 0, 30, 60, 120, and 240 minutes. The tube containing plasma was taken out every time, added with an acetonitrile solution containing an internal standard material (chlorpropamide), vortexed for 5 minutes, and centrifuged for 5 minutes (14,000 rpm, 4° C.). Thereafter, the plasma stability of the peptoid derivative was evaluated by injecting the supernatant into an LC-MS/MS system and analyzing the drug at each time period. At this time, Procaine and Enalapril were used as reference materials for accuracy during a general plasma stability test.
# (§6) After the reaction, the amount of drug remaining in each tube was analyzed by LC-MS/MS using Shimadzu Nexera XR system and TSQ vantage (Thermo). The HPLC column was used with a Luna C18 column (2.0×50 mm, 3 μm particle size; Phenomenex, US), and the mobile phase was distilled water (A) containing 0.1% formic acid and acetonitrile (B) containing 0.1% formic acid. Data analysis was performed using Xcalibur (version 1.6.1). In the result analysis, the plasma stability of each peptoid derivative was expressed as % remaining for each time period for the sample without culture.
# in vitro [4] = conditions: rat, plasma
# Protocol: as §5, §6
# in vitro [5] = conditions: human, microsomes, pH 7.4
# Protocol: (§7) Three types of liver microsomes (Human, Rat, Mouse, 0.5 mg/ml), a 0.1 M phosphate buffer solution (pH 7.4), and the peptoid derivative of the present disclosure were added at a concentration of 1 μM and pre-cultured at 37° C. for 5 minutes, and then added with an NADPH Regeneration system solution and cultured at 37° C. for 30 minutes. Thereafter, to terminate the reaction, the mixture was added with an acetonitrile solution containing an internal standard material (chlorpropamide), centrifuged for 5 minutes (14,000 rpm, 4° C.), and then the supernatant was injected into the LC-MS/MS system to analyze a substrate drug, and thus metabolic stability was evaluated.
# (§8) The HPLC column was used with a Kinetex C18 column (2.1×100 mm, 1.7 μm particle size; Phenomenex, USA), and the mobile phase was distilled water (A) containing 0.1% formic acid and acetonitrile (B) containing 0.1% formic acid. TurboSpray Ionization was used as an ion source for MS/MS, and a triple quadruple type was used as a mass spectrometer. The produced metabolites were quantified using a multiple reaction monitoring (MRM) quantitative mode, and data analysis was performed using Analyst software (version 1.6.1).
# in vitro [6] = conditions: rat, microsomes, pH 7.4
# Protocol: as §7
# (§9) The amount of substrate remaining through the reaction was analyzed by LC-MS/MS using Agilent 1290 infinity series pump system (Agilent, USA) and Triple Quad 5500 LC-MS/MS system (Applied Biosystems, USA). The HPLC column was used with a Kinetex C18 column (2.1×100 mm, 1.7 μm particle size; Phenomenex, USA), and the mobile phase was distilled water (A) containing 0.1% formic acid and acetonitrile (B) containing 0.1% formic acid. TurboSpray Ionization was used as an ion source for MS/MS, and a triple quadruple type was used as a mass spectrometer. The produced metabolites were quantified using a multiple reaction monitoring (MRM) quantitative mode, and data analysis was performed using Analyst software (version 1.6.1).
# in vitro [7] = conditions: mouse, microsomes, pH 7.4
# Protocol: as §7, §9
# CYP1A2 = target: T2, CYP1A2 (Homo sapiens, UniProt P05177); test: CYP inhibition assay, CYP1A2; conditions: human liver microsomes 0.25 mg/ml, 10 μM, 15 minutes
# T2 sequence (P05177 1-516): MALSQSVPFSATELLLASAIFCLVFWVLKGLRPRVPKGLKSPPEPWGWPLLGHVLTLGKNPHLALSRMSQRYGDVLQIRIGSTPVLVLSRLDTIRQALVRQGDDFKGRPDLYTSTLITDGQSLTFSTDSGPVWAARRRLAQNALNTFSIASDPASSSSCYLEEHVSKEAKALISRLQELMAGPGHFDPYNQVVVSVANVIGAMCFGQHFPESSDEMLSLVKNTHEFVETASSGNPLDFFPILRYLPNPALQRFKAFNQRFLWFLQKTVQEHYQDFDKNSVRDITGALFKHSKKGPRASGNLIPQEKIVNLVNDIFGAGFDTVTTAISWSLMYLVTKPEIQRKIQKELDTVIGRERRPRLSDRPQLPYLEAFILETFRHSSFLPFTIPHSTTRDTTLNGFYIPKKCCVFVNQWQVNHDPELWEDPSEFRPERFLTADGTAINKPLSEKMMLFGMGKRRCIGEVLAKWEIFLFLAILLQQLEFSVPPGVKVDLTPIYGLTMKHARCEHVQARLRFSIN
# Protocol: (§1) Metabolites of each CYP isoenzyme indicator drug produced through the reaction were analyzed by LC-MS/MS using the Shimadzu Nexera XR system and TSQ vantage (Thermo).
# CYP2C9 = CYP2C9 (Homo sapiens, UniProt P11712); test: CYP inhibition assay, CYP2C9; conditions: 10 μM
# Sequence of CYP2C9 (P11712 whole entry): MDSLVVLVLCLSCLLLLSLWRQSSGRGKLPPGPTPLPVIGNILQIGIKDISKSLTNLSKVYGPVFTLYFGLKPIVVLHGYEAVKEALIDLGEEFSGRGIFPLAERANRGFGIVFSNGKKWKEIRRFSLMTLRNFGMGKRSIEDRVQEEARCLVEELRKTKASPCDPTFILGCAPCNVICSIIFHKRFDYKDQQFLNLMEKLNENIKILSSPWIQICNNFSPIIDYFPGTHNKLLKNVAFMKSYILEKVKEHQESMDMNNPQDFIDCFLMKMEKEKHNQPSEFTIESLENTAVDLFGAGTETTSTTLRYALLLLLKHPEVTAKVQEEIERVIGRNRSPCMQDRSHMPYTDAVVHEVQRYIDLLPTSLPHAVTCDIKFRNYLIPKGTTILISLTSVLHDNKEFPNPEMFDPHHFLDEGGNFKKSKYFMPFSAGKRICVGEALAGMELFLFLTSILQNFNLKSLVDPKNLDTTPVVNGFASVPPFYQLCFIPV
# Protocol: as §1
# CYP2C19 = CYP2C19 (Homo sapiens, UniProt P33261); test: CYP inhibition assay, CYP2C19; conditions: 10 μM
# Sequence of CYP2C19 (P33261 whole entry): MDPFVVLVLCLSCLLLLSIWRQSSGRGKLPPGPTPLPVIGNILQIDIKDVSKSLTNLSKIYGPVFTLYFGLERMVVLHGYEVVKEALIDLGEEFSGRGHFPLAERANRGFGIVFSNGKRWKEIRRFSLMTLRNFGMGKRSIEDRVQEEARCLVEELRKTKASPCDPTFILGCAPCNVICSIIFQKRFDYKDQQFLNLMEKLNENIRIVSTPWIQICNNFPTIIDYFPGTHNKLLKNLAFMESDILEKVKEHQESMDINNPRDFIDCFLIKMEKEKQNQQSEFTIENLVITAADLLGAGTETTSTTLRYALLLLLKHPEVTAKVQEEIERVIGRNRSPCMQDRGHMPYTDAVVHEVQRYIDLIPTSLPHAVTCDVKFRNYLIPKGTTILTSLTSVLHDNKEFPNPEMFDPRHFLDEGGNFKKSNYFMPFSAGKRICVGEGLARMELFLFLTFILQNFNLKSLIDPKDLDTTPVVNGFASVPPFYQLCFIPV
# Protocol: as §1
# [8] = Plasma stability test, rat plasma; conditions: 1 μM, 37° C.
# Protocol: as §5, §6
# [9] = Plasma stability test, human plasma; conditions: 1 μM, 37° C.
# Protocol: as §5, §6
# Solubility test = conditions: test buffer pH 7.4, DMSO test standard solution, room temperature 24 hours, n=3
# Protocol: as §2, §3, §4
# [10] = Metabolic stability test, rat liver microsomes; conditions: rat liver microsomes 0.5 mg/ml, 1 μM, NADPH, 37° C.
# Protocol: as §7, §9
# [11] = Metabolic stability test, human liver microsomes; conditions: human liver microsomes 0.5 mg/ml, 1 μM, NADPH, 37° C.
# Protocol: as §7, §8
# [12] = Metabolic stability test, mouse liver microsomes; conditions: mouse liver microsomes 0.5 mg/ml, 1 μM, NADPH, 37° C.
# Protocol: as §7, §9
# [13] = human, microsomes, 15 min, pH 7.4
# [14] = human liver microsomes 0.25 mg/ml, 15 minutes
Structure (SMILES),solubility at 24 h (physchem) [µg/mL],"remaining at 0.5 h, 1 μM (in vitro [3]) [%]","remaining at 2 h, 1 μM (in vitro [3]) [%]","remaining at 0.5 h, 1 μM (in vitro [4]) [%]","remaining at 2 h, 1 μM (in vitro [4]) [%]","remaining at 0.5 h, 1 μM (in vitro [5]) [%]","remaining at 0.5 h, 1 μM (in vitro [6]) [%]","remaining at 0.5 h, 1 μM (in vitro [7]) [%]","Plasma stability (% remaining) Rat, 30 m [8] [% remaining]","Plasma stability (% remaining) Rat, 120 m [8] [% remaining]",effect of increasing AMPK phosphorylation activity compared to APN5 (AMPK phosphorylation [1]),AMPK phosphorylation activity (fold change) (AMPK phosphorylation [1]),AMPK phosphorylation activity after knockdown of the adiponectin receptor 1 (adiponectin receptor 1),further results
"NCC(=O)N(CC(=O)N(CC(=O)N(CC(=O)N(CC(N)=O)Cc1ccccc1)Cc1ccc(O)cc1)Cc1ccc(O)cc1)C1CCC1 [DS-15, Ngly-Ncba-Ntyr-Ntyr-Nbn-NH2] (H-G[N(cBu)Gly][Gly(N-4-hydroxybenzyl)][Gly(N-4-hydroxybenzyl)][Nphe]-NH2)",,,,,,,,,,,significant effect of increasing AMPK phosphorylation activity,1.2,reduced the AMPK phosphorylation activity,
CC(=O)N1CCN(c2ccc(OCC3COC(Cn4ccnc4)(c4ccc(Cl)cc4Cl)O3)cc2)CC1 (stereo not drawn) [Ketoconazole],,,,,,,,,,,,,,CYP inhibition (% of control activity) CYP1A2 (CYP1A2): 97.2 % of control activity; CYP inhibition (% of control activity) CYP2C9 (CYP2C9; [13]): >100 % of control activity; CYP inhibition (% of control activity) CYP2C19 (CYP2C19; [13]): >100 % of control activity
CCN(CC)CCOC(=O)c1ccc(N)cc1 [Procaine],,,,,,,,,90.3,57.4,,,,"Plasma stability (% remaining) Human, 30 m column, cell marked (5 min) ([9]; 5 min as printed in the cell): 2.8 (5 min) % remaining; Plasma stability (% remaining) Human, 120 m column, cell marked (5 min) ([9]; 5 min as printed in the cell): <1 (5 min) % remaining"
CCOC(=O)[C@H](CCc1ccccc1)N[C@@H](C)C(=O)N1CCC[C@H]1C(=O)O [Enalapril],,,,,,,,,27.9,<1,,,,"Plasma stability (% remaining) Human, 30 m [9]: >100 % remaining; Plasma stability (% remaining) Human, 120 m [9]: 97.4 % remaining"

# Now from value to molecule, other results behind:
solubility at 24 h (physchem) [µg/mL],"remaining at 0.5 h, 1 μM (in vitro [3]) [%]","remaining at 2 h, 1 μM (in vitro [3]) [%]","remaining at 0.5 h, 1 μM (in vitro [4]) [%]","remaining at 2 h, 1 μM (in vitro [4]) [%]","remaining at 0.5 h, 1 μM (in vitro [5]) [%]","remaining at 0.5 h, 1 μM (in vitro [6]) [%]","remaining at 0.5 h, 1 μM (in vitro [7]) [%]","Plasma stability (% remaining) Rat, 30 m [8] [% remaining]","Plasma stability (% remaining) Rat, 120 m [8] [% remaining]",Structure (SMILES),effect of increasing AMPK phosphorylation activity compared to APN5 (AMPK phosphorylation [1]),AMPK phosphorylation activity (fold change) (AMPK phosphorylation [1]),AMPK phosphorylation activity after knockdown of the adiponectin receptor 1 (adiponectin receptor 1),further results
325,98.6,98.4,> 100,95.9,93.6,80.9,76,,,"NCC(=O)N(CC(=O)N(CC(=O)N(CC(=O)N(CC(N)=O)Cc1ccccc1)Cc1ccc(O)cc1)Cc1ccccc1)C1CCCC1 [DS-25, Ngly-Ncpe-Nbn-Ntyr-Nbn-NH2] (H-G[Gly(N-cPent)][Nphe][Gly(N-4-hydroxybenzyl)][Nphe]-NH2)",significant effect of increasing AMPK phosphorylation activity,2.1,reduced the AMPK phosphorylation activity,concentration dependence of AMPK phosphorylation activity (AMPK phosphorylation [2]): increased AMPK phosphorylation activity in a concentration-dependent manner
,> 100,> 100,> 100,> 100,93.7,83.7,72.2,,,"NCC(=O)N(CC(=O)N(CC(=O)N(CC(=O)N(CC(N)=O)Cc1ccccc1)Cc1ccc(O)cc1)Cc1ccc(O)cc1)CC1CC1 [DS-31, Ngly-Ncpr-Ntyr-Ntyr-Nbn-NH2] (H-G[Gly(NCH2cPr)][Gly(N-4-hydroxybenzyl)][Gly(N-4-hydroxybenzyl)][Nphe]-NH2)",,,,
,,,,,,,,>100,>100,"O=C(COc1ccc(C(=O)c2ccccc2)cc1)NC1CCN(Cc2ccccc2)CC1 [DS-43, adiporon]",,1.2,,"CYP inhibition (% of control activity) CYP2C9 (CYP2C9; [14]): 57.8 % of control activity; CYP inhibition (% of control activity) CYP2C19 (CYP2C19; [14]): 66.0 % of control activity; Average DMSO solubility (Solubility test): 43.7 µg/mL; Plasma stability (% remaining) Human, 30 m [9]: >100 % remaining; Plasma stability (% remaining) Human, 120 m [9]: >100 % remaining; Metabolic stability (% remaining) Rat, 30 m [10]: 2.3 % remaining; Metabolic stability (% remaining) Human, 30 m [11]: 54.9 % remaining; Metabolic stability (% remaining) Mouse, 30 m [12]: 3.1 % remaining"
73.3,> 100,> 100,> 100,> 100,> 100,> 100,84.4,,,"NCC(=O)N(CCC(=O)O)CC(=O)N(CC(=O)N(CC(=O)N(CC(N)=O)Cc1ccccc1)Cc1ccc(C(F)(F)F)cc1)Cc1ccc(C(F)(F)F)cc1 [DS-71, Ngly-Nasp-Ntfp-Ntfp-Nbn-NH2]",,,,
351,> 100,> 100,> 100,> 100,77.2,73,95.3,,,"NCC(=O)N(CC(=O)N(CC(=O)N(CC(=O)N(CC(N)=O)Cc1ccc(C(F)(F)F)cc1)Cc1ccccc1)Cc1ccccc1)C1CCCC1 [DS-47, Ngly-Ncpe-Nbn-Ntfb-Nbn-NH2] (H-G[Gly(N-cPent)][Nphe][Nphe][X1]-NH2)",significant effect of increasing AMPK phosphorylation activity,1.6,reduced the AMPK phosphorylation activity,
333,> 100,> 100,> 100,99.5,87.1,79.8,75.5,,,"NCC(=O)N(CC(=O)N(CC(=O)N(CC(=O)N(CC(N)=O)Cc1ccccc1)Cc1ccc(O)cc1)Cc1ccc(O)cc1)C1CCCC1 [DS-16, Ngly-Ncpe-Ntyr-Ntyr-Nbn-NH2] (H-G[Gly(N-cPent)][Gly(N-4-hydroxybenzyl)][Gly(N-4-hydroxybenzyl)][Nphe]-NH2)",significant effect of increasing AMPK phosphorylation activity,1.4,reduced the AMPK phosphorylation activity,concentration dependence of AMPK phosphorylation activity (AMPK phosphorylation [2]): increased AMPK phosphorylation activity in a concentration-dependent manner
